Experimental data taken from US9751869B2, “LXR modulators” (BRISTOL-MYERS SQUIBB COMPANY, priority 2013, dated 2017).

Biological target: T1, LXRβ (Homo sapiens, UniProt P55055)
T1 construct: Co-transfection expression plasmids, comprising full-length LXRα (pCMX-h LXRα or LXRβ (pCMX-hLXRβ)); expressed in transfected cells; host or cells: CV-1 African green monkey kidney cells, transient transfection with pCMX-hLXRβ
T1 sequence (P55055 1-460): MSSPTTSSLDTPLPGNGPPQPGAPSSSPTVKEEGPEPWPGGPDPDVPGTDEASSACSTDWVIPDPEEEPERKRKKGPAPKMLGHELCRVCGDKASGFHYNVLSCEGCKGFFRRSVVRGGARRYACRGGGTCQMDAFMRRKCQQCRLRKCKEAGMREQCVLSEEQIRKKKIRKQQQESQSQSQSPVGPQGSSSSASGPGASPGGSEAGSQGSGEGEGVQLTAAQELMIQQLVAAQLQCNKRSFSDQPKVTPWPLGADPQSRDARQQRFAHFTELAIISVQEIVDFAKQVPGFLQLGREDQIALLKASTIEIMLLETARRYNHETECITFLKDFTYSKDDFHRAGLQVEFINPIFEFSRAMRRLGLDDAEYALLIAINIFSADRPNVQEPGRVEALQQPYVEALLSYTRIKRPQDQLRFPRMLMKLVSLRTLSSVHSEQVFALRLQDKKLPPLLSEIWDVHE
T1 sequence (P19793 1-462 partner): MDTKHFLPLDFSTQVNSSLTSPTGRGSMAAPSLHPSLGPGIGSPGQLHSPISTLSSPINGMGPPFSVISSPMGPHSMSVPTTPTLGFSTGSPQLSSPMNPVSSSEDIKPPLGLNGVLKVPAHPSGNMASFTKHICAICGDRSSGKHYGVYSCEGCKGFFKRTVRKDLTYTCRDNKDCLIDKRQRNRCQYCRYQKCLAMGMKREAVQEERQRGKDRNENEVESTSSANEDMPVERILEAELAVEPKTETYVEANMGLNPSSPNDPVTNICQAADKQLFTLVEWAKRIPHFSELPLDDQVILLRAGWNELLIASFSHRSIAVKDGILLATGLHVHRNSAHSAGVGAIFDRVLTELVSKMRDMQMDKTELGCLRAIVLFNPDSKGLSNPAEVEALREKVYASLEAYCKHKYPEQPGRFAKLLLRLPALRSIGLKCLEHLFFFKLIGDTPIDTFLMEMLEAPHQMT
Assay: LXR/LXRE co-transfection assay (luciferase reporter) in CV-1 cells, LXRβ
Assay type: cell-based
Details: for EC50: CV-1 cells transfected with pCMX-hLXRβ and LXREx1-Tk-Luciferase, 20 hours incubation, read-out: LXRbeta agonism EC50; for Emax: read-out: LXRbeta % EFFICACY
Outline: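 Luciferase read-out after 20 h compound treatment at 37 °C of CV-1 cells carrying transfected hLXRβ plus one-copy LXRE reporter, endogenous RXR partnering. Sigmoidal fit of 10-point half-log curves (4 wells each) gave EC50; % efficacy versus maximal response of the propionamide reference agonist.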

[1] = CV-1 cells, relative to maximum response of high control N-(3-((4-fluorophenyl)-(naphthalene-2-sulfonyl)amino)propyl)-2,2-dimethylpropionamide

SMILES	EC50 [nM]	Emax [1] [%]	LXRbeta % EFFICACY [1] [%]
CS(=O)(=O)c1cccc(-c2ccc(-n3ccc(C(F)(F)F)n3)c(-c3nc(C4CC4)oc3-c3ccc(OC(F)(F)F)cc3)c2)c1 [Example 403, 2-cyclopropyl-4-(3′-(methylsulfonyl)-4-(3-(trifluoromethyl)-1H-pyrazol-1-yl)biphenyl-3-yl)-5-(4-(trifluoromethoxy)phenyl)oxazole]	82	62	–
Cc1nc(-c2cc(-c3cc(F)c(CO)c(S(C)(=O)=O)c3)ccc2-c2cc(C(C)(C)C(N)=O)nn2C)c(-c2ccc3c(c2)OC(F)(F)O3)o1 [Example 63, 2-(5-(3-(5-(2,2-difluorobenzo[d][1,3]dioxol-5-yl)-2-methyloxazol-4-yl)-3′-fluoro-4′-(hydroxymethyl)-5′-(methylsulfonyl)biphenyl-4-yl)-1-methyl-1H-pyrazol-3-yl)-2-methylpropanamide]	55	33	–
Cc1nc(-c2ccc(OC(F)(F)F)cc2)c(-c2cc(-c3cccc(S(C)(=O)=O)c3)ccc2-n2ccc(C#N)n2)o1 [Example 318, 1-(3-(2-methyl-4-(4-(trifluoromethoxy)phenyl)oxazol-5-yl)-3′-(methylsulfonyl)biphenyl-4-yl)-1H-pyrazole-3-carbonitrile]	246	84	–
Cc1nc(-c2ccc3c(c2)OC(F)(F)O3)c(-c2cc(-c3cc(F)c(CO)c(S(C)(=O)=O)c3)ccc2-c2cc(CS(=O)(=O)N(C)C)nn2C)o1 [Example 69, 1-(5-(3-(4-(2,2-difluorobenzo[d][1,3]dioxol-5-yl)-2-methyloxazol-5-yl)-3′-fluoro-4′-(hydroxymethyl)-5′-(methylsulfonyl)-[1,1′-biphenyl]-4-yl)-1-methyl-1H-pyrazol-3-yl)-N,N-dimethylmethanesulfonamide]	160	24	–
Cc1cc(C(F)(F)F)nn1-c1ccc(-c2cccc(C(C)(C)C(N)=O)c2)cc1-n1nncc1-c1ccc(OC(F)(F)F)cc1 [Example 303, 2-methyl-2-{4′-[5-methyl-3-(trifluoromethyl)-1H-pyrazol-1-yl]-3′-(5-{4-[(trifluoromethyl)oxy]phenyl}-1H-1,2,3-triazol-1-yl)biphenyl-3-yl}propanamide]	825	102	–
Cc1nc(-c2cc(-c3ccc(CO)c(S(C)(=O)=O)c3)ccc2-n2nc(C(F)(F)F)cc2C)c(-c2ccc3c(c2)OC(F)(F)O3)o1 [Example 390, (3′-(5-(2,2-difluorobenzo[d][1,3]dioxol-5-yl)-2-methyloxazol-4-yl)-4′-(5-methyl-3-(trifluoromethyl)-1H-pyrazol-1-yl)-3-(methylsulfonyl)biphenyl-4-yl) methanol]	10	72	–
CNS(=O)(=O)c1cccc(-c2ccc(-n3cc(Cl)c(C(F)(F)F)n3)c(-c3oc(C)nc3-c3cnc(OC)nc3)c2)c1 [Example 445, 4′-(4-chloro-3-(trifluoromethyl)-1H-pyrazol-1-yl)-3′-(4-(2-methoxypyrimidin-5-yl)-2-methyloxazol-5-yl)-N-methyl-[1,1′-biphenyl]-3-sulfonamide]	170	63	–
Cc1nc(-c2ccc3c(c2)OC(F)(F)O3)c(-c2cc(-c3cc(F)c(CO)c(S(C)(=O)=O)c3)ccc2-c2cc(C(=O)NCC3CC3)nn2C)o1 [Example 110, N-(cyclopropylmethyl)-5-(3-(4-(2,2-difluorobenzo[d][1,3]dioxol-5-yl)-2-methyloxazol-5-yl)-3′-fluoro-4′-(hydroxymethyl)-5′-(methylsulfonyl)-[1,1′-biphenyl]-4-yl)-1-methyl-1H-pyrazole-3-carboxamide]	244	55	–
Cc1nc(-c2ccc3c(c2)OC(F)(F)O3)c(-c2cc(-c3cc(F)c(CO)c(S(C)(=O)=O)c3)ccc2-c2cc(C(F)(F)C(=O)N3CCOCC3)nn2C)o1 [Example 81, 2-(5-(3-(4-(2,2-difluorobenzo[d][1,3]dioxol-5-yl)-2-methyloxazol-5-yl)-3′-fluoro-4′-(hydroxymethyl)-5′-(methylsulfonyl)biphenyl-4-yl)-1-methyl-1H-pyrazol-3-yl)-2,2-difluoro-1-morpholinoethanone]	184	43	–

Second part, the compound after the results:

EC50 [nM]	Emax [1] [%]	LXRbeta % EFFICACY [1] [%]	SMILES
126	61	–	Cc1nc(-c2ccc3c(c2)OC(F)(F)O3)c(-c2cc(-c3cccc(S(C)(=O)=O)c3)ccc2-c2cc(C(C)(C)C(N)=O)nn2C)o1 [Example 96, 2-(5-(3-(4-(2,2-difluorobenzo[d][1,3]dioxol-5-yl)-2-methyloxazol-5-yl)-3′-(methylsulfonyl)biphenyl-4-yl)-1-methyl-1H-pyrazol-3-yl)-2-methylpropanamide]
27	78	–	Cc1nc(-c2ccc(OC(F)F)cc2)c(-c2cc(-c3cccc(S(C)(=O)=O)c3)ccc2-n2nc(C(F)(F)F)cc2C)o1 [Example 327, 4-(4-(difluoromethoxy)phenyl)-2-methyl-5-(4-(5-methyl-3-(trifluoromethyl)-1H-pyrazol-1-yl)-3′-(methylsulfonyl)biphenyl-3-yl)oxazole]
185	67	–	Cc1nc(-c2cc(-c3cccc(C(C)(C)C(N)=O)c3)ccc2-n2nc(C(F)(F)F)cc2Cl)c(-c2ccc(OC(F)(F)F)cc2)o1 [Example 404, 2-(4′-(5-chloro-3-(trifluoromethyl)-1H-pyrazol-1-yl)-3′-(2-methyl-5-(4-(trifluoromethoxy)phenyl)oxazol-4-yl)biphenyl-3-yl)-2-methylpropanamide]
105	30	–	Cc1nc(-c2ccc3c(c2)OC(F)(F)O3)c(-c2cc(-c3cc(F)c(CO)c(S(C)(=O)=O)c3)ccc2-n2ccc(C(C)(C)O)n2)o1 [Example 358, 2-(1-(3-(4-(2,2-difluorobenzo[d][1,3]dioxol-5-yl)-2-methyloxazol-5-yl)-3′-fluoro-4′-(hydroxymethyl)-5′-(methylsulfonyl)-[1,1′-biphenyl]-4-yl)-1H-pyrazol-3-yl)propan-2-ol]
35	92	–	Cc1nc(-c2ccc3c(c2)OC(F)(F)O3)c(-c2cc(-c3cc(F)c(CO)c(S(C)(=O)=O)c3)ccc2-n2nc(C(F)(F)F)cc2Cl)o1 [Example 347, (4′-(5-chloro-3-(trifluoromethyl)-1H-pyrazol-1-yl)-3′-(4-(2,2-difluorobenzo[d] [1,3]dioxol-5-yl)-2-methyloxazol-5-yl)-3-fluoro-5-(methylsulfonyl)biphenyl-4-yl)methanol]
71	64	–	Cc1nc(-c2ccc3c(c2)OC(F)(F)O3)c(-c2cc(-c3cccc(S(C)(=O)=O)c3)ccc2-c2cc(C(F)(F)CO)nn2C)o1 [Example 106, 2-(5-(3-(4-(2,2-difluorobenzo[d][1,3]dioxol-5-yl)-2-methyloxazol-5-yl)-3′-(methylsulfonyl)-[1,1′-biphenyl]-4-yl)-1-methyl-1H-pyrazol-3-yl)-2,2-difluoroethanol]
1560	47	–	Cn1nc(C(=O)NC(C)(C)C#N)cc1-c1ccc(-c2cccc(S(C)(=O)=O)c2)cc1-n1nncc1-c1ccc(OC(F)(F)F)cc1 [Example 37, N-(1-cyano-1-methylethyl)-1-methyl-5-[3′-(methylsulfonyl)-3-(5-{4-[(trifluoromethyl)oxy]phenyl}-1H-1,2,3-triazol-1-yl)biphenyl-4-yl]-1H-pyrazole-3-carboxamide]
157	–	49	Cc1nc(-c2ccc3c(c2)OC(F)(F)O3)c(-c2cc(-c3cc(F)c(CO)c(S(C)(=O)=O)c3)ccc2-c2cc(C(C)OC(N)=O)nn2C)o1 (stereo not drawn) [Example 132, 1-(5-(3-(4-(2,2-difluorobenzo[d][1,3]dioxol-5-yl)-2-methyloxazol-5-yl)-3′-fluoro-4′-(hydroxymethyl)-5′-(methylsulfonyl)-[1,1′-biphenyl]-4-yl)-1-methyl-1H-pyrazol-3-yl)ethyl carbamate]
122	61	–	CNC(=O)C(F)(F)c1cc(-c2ccc(-c3cc(F)c(CO)c(S(C)(=O)=O)c3)cc2-c2oc(C)nc2-c2ccc3c(c2)OC(F)(F)O3)n(C)n1 [Example 50, 2-(5-(3-(4-(2,2-difluorobenzo[d][1,3]dioxol-5-yl)-2-methyloxazol-5-yl)-3′-fluoro-4′-(hydroxymethyl)-5′-(methylsulfonyl)biphenyl-4-yl)-1-methyl-1H-pyrazol-3-yl)-2,2-difluoro-N-methylacetamide]
